Molecular target: T1, cyclin-dependent kinase 2 (CDK2/cyclin A) (Homo sapiens, UniProt P24941)
T1 construct: with cyclin A
Test: in vitro protein kinase activity assay, […] ATP
Type: biochemical

**Q.** O=C1N[C@@H](Cc2ccccc2)C(=O)N2CCC[C@H]12 [compound 6, cyclo(D-Pro-L-Phe)] was tested. Which IC50 did it give?
**A.** 1 µM

From article PMC6723059, “A Collection of Bioactive Nitrogen-Containing Molecules from the Marine Sponge Acanthostrongylophora ingens” (Marine Drugs, 2019)
